Measured values taken from patent US10919891B2, “Heterocyclic compound” (TAKEDA PHARMACEUTICAL COMPANY LIMITED, priority 2017, dated 2021).

Legend:
CYP3A = assay: CYP Induction (CYP3A activity in cryopreserved hepatocytes, P450-Glo CYP3A4 assay); assay type: in vitro ADME; settings: % of positive control (inducibility by 10 μmol/L rifampicin = 100%); hepatocytes treated 3 days
Method: Cryopreserved hepatocytes were thawed in a culture medium (In VitroGRO™ CP Medium, Celsis In Vitro Technologies, U.S.A.), and the resultant was added to BioCoat™ Matrigel® Matrix Thin-Layer 96 well (Becton, Dickinson and Company, U.S.A.) at a concentration of 40,000 cells/well. After culturing for 24 hours, the culture medium was removed, and replaced with an incubation medium (In VitroGRO™, HI Medium with Torpedo Antibiotic Mix, Celsis In Vitro Technologies, U.S.A.). Cells were cultured for an additional 3 days. The medium was removed on day 4, and the remained cells were treated in the induction medium containing a test compound for 3 days in the presence or absence of 10 μmol/L rifampicin. The induction medium was replaced every day. The test compound addition wells in the presence of 10 μmol/L rifampicin were used to evaluate the inhibitory effect of the test compound on the inducibility of the CYP3A activity by rifampicin. The CYP3A activity was evaluated by measuring luciferin generating amount after the addition of 2 μmol/L luciferin-IPA using IPA P450-Glo™ CYP3A4 assay systems (Promega Corporation, U.S.A.). All cultures were carried out under a humidified environment at 37° C., 5% CO2. The inducibility by rifampicin was defines as 100%, and the inducibility of the test compound (% of positive control) was calculated from the following equation: [(luciferin fluorescence intensity in the absence of rifampicin and the presence of test compound)−(luciferin fluorescence intensity in the absence of rifampicin and test compound)/(luciferin fluorescence intensity in the presence of rifampicin and the absence of test compound)−(Luciferin fluorescence intensity in the absence of rifampicin and test compound)]×100.

human CaSR = biological target: T1, human CaSR (Homo sapiens, UniProt P41180); assay: Human CaSR Antagonist Activity (CHO cells, NFAT-Luciferase reporter); assay type: cell-based; settings: CHO, 2 h, 3.3 μm test compound; CaCl2 final 1.3 mM; 100% = reference carboxamide at 10 μM; read-out: Inhibition rate (%) at 3.3 μm
T1 construct: expressed in transfected cells; host or cells: CHO cells
T1 sequence (P41180 20-1078): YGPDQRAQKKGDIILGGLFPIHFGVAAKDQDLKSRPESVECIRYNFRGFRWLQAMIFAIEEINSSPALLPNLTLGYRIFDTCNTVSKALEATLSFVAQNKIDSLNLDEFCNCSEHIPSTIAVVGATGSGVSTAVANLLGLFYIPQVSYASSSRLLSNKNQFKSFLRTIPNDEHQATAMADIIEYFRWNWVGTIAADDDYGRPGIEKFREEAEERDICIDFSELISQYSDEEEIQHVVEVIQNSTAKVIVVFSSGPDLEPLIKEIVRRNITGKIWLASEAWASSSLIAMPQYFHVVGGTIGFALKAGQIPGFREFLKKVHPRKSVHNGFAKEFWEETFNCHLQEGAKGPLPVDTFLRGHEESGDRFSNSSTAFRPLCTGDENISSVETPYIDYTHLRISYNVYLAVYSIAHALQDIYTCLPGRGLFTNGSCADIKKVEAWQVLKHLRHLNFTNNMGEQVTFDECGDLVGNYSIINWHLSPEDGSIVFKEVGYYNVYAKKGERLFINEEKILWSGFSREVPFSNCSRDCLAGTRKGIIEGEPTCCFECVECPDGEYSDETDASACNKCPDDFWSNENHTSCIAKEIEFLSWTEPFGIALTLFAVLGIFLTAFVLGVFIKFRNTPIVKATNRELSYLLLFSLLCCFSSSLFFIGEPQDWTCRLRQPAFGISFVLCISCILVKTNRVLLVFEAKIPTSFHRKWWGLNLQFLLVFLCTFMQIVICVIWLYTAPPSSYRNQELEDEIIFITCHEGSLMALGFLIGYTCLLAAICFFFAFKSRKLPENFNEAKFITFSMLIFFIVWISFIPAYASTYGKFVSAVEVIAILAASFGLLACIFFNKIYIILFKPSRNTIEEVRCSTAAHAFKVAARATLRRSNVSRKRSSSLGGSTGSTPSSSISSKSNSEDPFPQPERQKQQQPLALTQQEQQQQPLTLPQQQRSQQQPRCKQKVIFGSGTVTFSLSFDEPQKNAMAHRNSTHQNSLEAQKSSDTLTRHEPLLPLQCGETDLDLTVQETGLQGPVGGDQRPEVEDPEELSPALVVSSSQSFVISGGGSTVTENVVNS
Method: CaSR antagonist activity measurement was performed using Bright-Glo Luciferase assay system (Promega Corporation). CHO cells in which human CaSR and NFAT-Luciferase reporter gene were forcibly expressed were suspended in MEM alpha (Wako Pure Chemical Industries, Ltd.) containing 10% dialyzed serum (HyClone). The cells in suspension was seeded in 384-well white plate (Corning) at 10,000/20 μL/well, and cultured in an incubator of 37° C., 5% CO2 for one day. A diluent of Test compound was prepared with assay buffer (MEM alpha containing 10 mM HEPES (Life Technologies) and 10% dialysis serum). The diluent was added to the plate at 5 μL/well and allowed to stand at 37° C. for 10 minutes. Further, a diluent of 7.8 mM CaCl2 prepared with assay buffer (final concentration 1.3 mM) was added at 5 μl/well and allowed to stand in an incubator of 37° C., 5% CO2 for 2 hours. Bright-Glo reagents (Promega Corporation) were added at 10 μL/well, and the obtained mixture was stirred for 5 minutes, and then luminescence intensity was measured using Multi-label reader Envision (PerkinElmer, Inc.). The activity (%) of the test compound was calculated with the definitions in which the luminescence intensity when DMSO is added in place of the test compound is defined as 0% inhibition; and the luminescence intensity when (5R)—N-(1-ethyl-1-(4-ethylphenyl)propyl)-2,7,7-trimethyl-5-phenyl-4,5,6,7-tetrahydropyrazolo[1,5-a]Pyrimidine-3-carboxamide at final concentration of 10 μM is added is defined as 100% inhibition.

CSQ-Tg mice = assay: Heart weight lowering effect in heart failure animal model; assay type: in vivo; settings: for Heart weight (Mean ± standard deviation (mg)): female CSQ-Tg mice
Method: In this Test Example, the heart weight lowering effect of the compound of Example 1 was evaluated using CSQ-Tg mice as animal model for heart failure.
The compound of Example 1 was suspended in 0.5% methylcellulose aqueous solution (hereinafter, in Test Examples, sometimes referred to as “vehicle”) (10 mL/kg). The obtained suspension was orally administered to 5-week old female CSQ-Tg mice developing heart failure at a dose of 10 mg/kg bodyweight/day (n=7) or 30 mg/kg bodyweight/day (n=10) once daily (QD) for 21 days. For a negative control (vehicle administration group), 0.5% methylcellulose aqueous solution (n=7) was administered. Then, weights of the hearts were measured. The measurement of the weights was carried out by fractionating each of the hearts into four: left ventricle, right ventricle, left atrium, and right atrium. The sum of the weights of the four fractions was defined as the heart weight.

[1] = 10 mg/kg bodyweight/day oral QD for 21 days
[2] = 30 mg/kg bodyweight/day oral QD for 21 days

CC1(C)C[C@H](c2ccccc2)Nc2c(C(=O)N3C[C@@H]4C[C@]4(c4ccc(Cl)c(Cl)c4)C3)cnn21 [Example 1, ((1S,5R)-1-(3,4-Dichlorophenyl)-3-azabicyclo[3.1.0]hex-3-yl)((5R)-7,7-dimethyl-5-phenyl-4,5,6,7-tetrahydropyrazolo[1,5-a]pyrimidin-3-yl)methanone]
Inducibility (%) (CYP3A): 4.9%
inhibition at 3.3 µM (human CaSR): 100%
Left atrium weight (Mean ± standard deviation (mg)) (CSQ-Tg mice; [1]): 10.7 ± 3.5 mg
Left ventricle weight (Mean ± standard deviation (mg)) (CSQ-Tg mice; [1]): 160.1 ± 11.9 mg
Right atrium weight (Mean ± standard deviation (mg)) (CSQ-Tg mice; [1]): 6.2 ± 3.1 mg
Right ventricle weight (Mean ± standard deviation (mg)) (CSQ-Tg mice; [1]): 44.9 ± 5.1 mg
Heart weight (Mean ± standard deviation (mg)) (CSQ-Tg mice; [1]): 221.9 ± 18.2 mg
Left atrium weight (Mean ± standard deviation (mg)) (CSQ-Tg mice; [2]): 9.6 ± 2.6 mg
Left ventricle weight (Mean ± standard deviation (mg)) (CSQ-Tg mice; [2]): 153.2 ± 12.7 mg
Right atrium weight (Mean ± standard deviation (mg)) (CSQ-Tg mice; [2]): 5.8 ± 2.4 mg
Heart weight (Mean ± standard deviation (mg)) (CSQ-Tg mice; [2]): 212.5 ± 21.9 mg
Right ventricle weight (Mean ± standard deviation (mg)) (CSQ-Tg mice; 30 mg/kg bodyweight/day oral QD for 21 days, ** Williams' multiple comparison test (p < 0.025)): 43.9 ± 6.9** mg
